{"source": "ChEMBL document CHEMBL1201862", "about": "“PubChem BioAssay data set” (2004)", "assay_in_all_cases": "NCI anticancer screen, dose series, 48 h", "key": {"SW-620": {"tested_on": "SW-620"}, "NCI/ADR-RES": {"tested_on": "NCI/ADR-RES"}, "TK-10": {"tested_on": "TK-10"}, "HL-60": {"tested_on": "HL-60"}, "COLO 205": {"tested_on": "COLO 205"}, "Malme-3M": {"tested_on": "Malme-3M"}, "EKVX": {"tested_on": "EKVX"}, "MDA-MB-435": {"tested_on": "MDA-MB-435"}, "SF-295": {"tested_on": "SF-295"}, "CCRF-CEM": {"tested_on": "CCRF-CEM"}, "HOP-92": {"tested_on": "HOP-92"}, "KM12": {"tested_on": "KM12"}, "SK-OV-3": {"tested_on": "SK-OV-3"}, "MDA-N": {"tested_on": "MDA-N"}, "786-0": {"tested_on": "786-0"}, "OVCAR-4": {"tested_on": "OVCAR-4"}, "SNB-19": {"tested_on": "SNB-19"}, "UO-31": {"tested_on": "UO-31"}, "OVCAR-5": {"tested_on": "OVCAR-5"}, "HCC 2998": {"tested_on": "HCC 2998"}, "HCT-116": {"tested_on": "HCT-116"}, "MOLT-4": {"tested_on": "MOLT-4"}, "SNB-75": {"tested_on": "SNB-75"}, "UACC-62": {"tested_on": "UACC-62"}, "SF-539": {"tested_on": "SF-539"}, "U-251": {"tested_on": "U-251"}, "CAKI-1": {"tested_on": "CAKI-1"}, "MCF7": {"tested_on": "MCF7"}, "LOX IMVI": {"tested_on": "LOX IMVI"}, "HOP-62": {"tested_on": "HOP-62"}, "NCI-H226": {"tested_on": "NCI-H226"}, "OVCAR-3": {"tested_on": "OVCAR-3"}, "Hs-578T": {"tested_on": "Hs-578T"}, "ACHN": {"tested_on": "ACHN"}, "SK-MEL-5": {"tested_on": "SK-MEL-5"}, "PC-3": {"tested_on": "PC-3"}, "SN12C": {"tested_on": "SN12C"}, "T47D": {"tested_on": "T47D"}, "DU-145": {"tested_on": "DU-145"}, "SK-MEL-2": {"tested_on": "SK-MEL-2"}, "IGROV-1": {"tested_on": "IGROV-1"}, "NCI-H23": {"tested_on": "NCI-H23"}, "RPMI-8226": {"tested_on": "RPMI-8226"}, "MDA-MB-231": {"tested_on": "MDA-MB-231"}, "HCT-15": {"tested_on": "HCT-15"}, "RXF 393": {"tested_on": "RXF 393"}, "UACC-257": {"tested_on": "UACC-257"}, "M14": {"tested_on": "M14"}, "A549": {"tested_on": "A549"}, "NCI-H460": {"tested_on": "NCI-H460"}, "SF-268": {"tested_on": "SF-268"}, "SK-MEL-28": {"tested_on": "SK-MEL-28"}, "SR": {"tested_on": "SR"}, "OVCAR-8": {"tested_on": "OVCAR-8"}, "K562": {"tested_on": "K562"}, "HT-29": {"tested_on": "HT-29"}}, "note": "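Step 1: Grow cells in 96-well plates. Step 2: Expose to compound for 48 hours at 5 concentrations. Step 3: Interpolate endpoints linearly; if unreached, use highest concentration. GI50 is the concentration that inhibits growth by half.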 Active and inactive are the calls of the source. Cut-off read from the data, not from the text of the source: active = GI50 up to about 1.1 µM and inactive = higher."}
{"smiles": "C1=CC2=CC=CC3c4nc5ccc6ccccc6c5nc4C(=C1)C23", "note": "(stereo unspecified)", "values": [{"measurement": "GI50", "setting": "SW-620", "value": "> 100 µM (inactive)"}, {"measurement": "GI50", "setting": "NCI/ADR-RES", "value": "> 100 µM (inactive)"}, {"measurement": "GI50", "setting": "TK-10", "value": "> 100 µM (inactive)"}, {"measurement": "GI50", "setting": "HL-60", "value": "> 100 µM (inactive)"}, {"measurement": "GI50", "setting": "COLO 205", "value": "> 100 µM (inactive)"}, {"measurement": "GI50", "setting": "Malme-3M", "value": "> 100 µM (inactive)"}, {"measurement": "GI50", "setting": "EKVX", "value": "> 100 µM (inactive)"}, {"measurement": "GI50", "setting": "MDA-MB-435", "value": "> 100 µM (inactive)"}, {"measurement": "GI50", "setting": "SF-295", "value": "> 100 µM (inactive)"}, {"measurement": "GI50", "setting": "CCRF-CEM", "value": "> 100 µM (inactive)"}, {"measurement": "GI50", "setting": "HOP-92", "value": "> 100 µM (inactive)"}, {"measurement": "GI50", "setting": "KM12", "value": "> 100 µM (inactive)"}, {"measurement": "GI50", "setting": "SK-OV-3", "value": "> 100 µM (inactive)"}, {"measurement": "GI50", "setting": "MDA-N", "value": "> 100 µM (inactive)"}, {"measurement": "GI50", "setting": "786-0", "value": "> 100 µM (inactive)"}, {"measurement": "GI50", "setting": "OVCAR-4", "value": "> 100 µM (inactive)"}, {"measurement": "GI50", "setting": "SNB-19", "value": "> 100 µM (inactive)"}, {"measurement": "GI50", "setting": "UO-31", "value": "> 100 µM (inactive)"}, {"measurement": "GI50", "setting": "OVCAR-5", "value": "> 100 µM (inactive)"}, {"measurement": "GI50", "setting": "HCC 2998", "value": "> 100 µM (inactive)"}, {"measurement": "GI50", "setting": "HCT-116", "value": "> 100 µM (inactive)"}, {"measurement": "GI50", "setting": "MOLT-4", "value": "> 100 µM (inactive)"}, {"measurement": "GI50", "setting": "SNB-75", "value": "> 100 µM (inactive)"}, {"measurement": "GI50", "setting": "UACC-62", "value": "> 100 µM (inactive)"}, {"measurement": "GI50", "setting": "SF-539", "value": "> 100 µM (inactive)"}, {"measurement": "GI50", "setting": "U-251", "value": "> 100 µM (inactive)"}, {"measurement": "GI50", "setting": "CAKI-1", "value": "> 100 µM (inactive)"}, {"measurement": "GI50", "setting": "MCF7", "value": "> 100 µM (inactive)"}, {"measurement": "GI50", "setting": "LOX IMVI", "value": "> 100 µM (inactive)"}, {"measurement": "GI50", "setting": "HOP-62", "value": "> 100 µM (inactive)"}, {"measurement": "GI50", "setting": "NCI-H226", "value": "> 100 µM (inactive)"}, {"measurement": "GI50", "setting": "OVCAR-3", "value": "> 100 µM (inactive)"}, {"measurement": "GI50", "setting": "Hs-578T", "value": "> 100 µM (inactive)"}, {"measurement": "GI50", "setting": "ACHN", "value": "> 100 µM (inactive)"}, {"measurement": "GI50", "setting": "SK-MEL-5", "value": "> 100 µM (inactive)"}, {"measurement": "GI50", "setting": "PC-3", "value": "> 100 µM (inactive)"}, {"measurement": "GI50", "setting": "SN12C", "value": "> 100 µM (inactive)"}, {"measurement": "GI50", "setting": "T47D", "value": "> 100 µM (inactive)"}, {"measurement": "GI50", "setting": "DU-145", "value": "> 100 µM (inactive)"}, {"measurement": "GI50", "setting": "SK-MEL-2", "value": "> 100 µM (inactive)"}, {"measurement": "GI50", "setting": "IGROV-1", "value": "> 100 µM (inactive)"}, {"measurement": "GI50", "setting": "NCI-H23", "value": "> 100 µM (inactive)"}, {"measurement": "GI50", "setting": "RPMI-8226", "value": "> 100 µM (inactive)"}, {"measurement": "GI50", "setting": "MDA-MB-231", "value": "> 100 µM (inactive)"}, {"measurement": "GI50", "setting": "HCT-15", "value": "> 100", "unit": "µM"}, {"measurement": "GI50", "setting": "RXF 393", "value": "> 100 µM (inactive)"}, {"measurement": "GI50", "setting": "UACC-257", "value": "> 100 µM (inactive)"}, {"measurement": "GI50", "setting": "M14", "value": "> 100 µM (inactive)"}, {"measurement": "GI50", "setting": "A549", "value": "> 100 µM (inactive)"}, {"measurement": "GI50", "setting": "NCI-H460", "value": "> 100 µM (inactive)"}, {"measurement": "GI50", "setting": "SF-268", "value": "> 100 µM (inactive)"}, {"measurement": "GI50", "setting": "SK-MEL-28", "value": "> 100 µM (inactive)"}, {"measurement": "GI50", "setting": "SR", "value": "> 100 µM (inactive)"}, {"measurement": "GI50", "setting": "OVCAR-8", "value": "> 100 µM (inactive)"}, {"measurement": "GI50", "setting": "K562", "value": "> 100 µM (inactive)"}, {"measurement": "GI50", "setting": "HT-29", "value": "> 100 µM (inactive)"}]}
